ChEMBL document CHEMBL3044912, “Nematicidal efficacy of isothiocyanates against root-knot nematode Meloidogyne javanica in cucumber” (2011)
≈ marks a conversion by molar mass, not a printed value. Calls of active or inactive are those of the source. The rule behind the calls is not given here.

Tests used:
Meloidogyne javanica [1] = test: Nematicidal activity against Meloidogyne javanica J2 (root-knot nematode) assessed as mortality rate compound treated as vapor at 25 +/- 2 degC; format: functional; details: for LC50: Meloidogyne javanica
Meloidogyne javanica [2] = test: Nematicidal activity against Meloidogyne javanica J2 (root-knot nematode) assessed as mortality rate at 5 ug/mL (vapor concentration in the air, weight/volume) at 25 +/- 2 degC measured after 72 hr; format: functional
Meloidogyne javanica [3] = test: Nematicidal activity against Meloidogyne javanica J2 (root-knot nematode) assessed as mortality rate at 5 ug/mL (vapor concentration in the air, weight/volume) at 25 +/- 2 degC measured after 48 hr; format: functional
Meloidogyne javanica [4] = test: Nematicidal activity against Meloidogyne javanica (root-knot nematode) infected in cucumber field assessed as reduction in root gallling at 2 kg/ha by field plot experiment; format: functional, organism-based
Meloidogyne javanica [5] = test: Nematicidal activity against Meloidogyne javanica (root-knot nematode) inoculated in cucumber plant assessed as reduction in Meloidogyne javanica (root-knot nematode)numbers at 0.5 to 2 ml/kg of soil dosed 7 days before planting by pot experiment; format: functional, organism-based
Meloidogyne javanica [6] = test: Nematicidal activity against Meloidogyne javanica (root-knot nematode) inoculated in cucumber plant assessed as reduction in galls compound treated in soil 7 days before planting by pot experiment; format: functional
Meloidogyne javanica [7] = test: Nematicidal activity against Meloidogyne javanica (root-knot nematode) inoculated in cucumber plant assessed as reduction in galls at 2 ml/kg of soil dosed 7 days before planting by pot experiment; format: functional, organism-based
Meloidogyne javanica [8] = test: Nematicidal activity against Meloidogyne javanica (root-knot nematode) inoculated in cucumber plant assessed as reduction in galls at 1 ml/kg of soil dosed 7 days before planting by pot experiment; format: functional, organism-based
Meloidogyne javanica [9] = test: Nematicidal activity against Meloidogyne javanica (root-knot nematode) inoculated in cucumber plant assessed as reduction in galls at 0.5 ml/kg of soil dosed 7 days before planting by pot experiment; format: functional, organism-based
Meloidogyne javanica [10] = test: Nematicidal activity against Meloidogyne javanica (root-knot nematode) infected in cucumber field assessed as reduction in root gallling at 5 kg/ha by field plot experiment; format: functional, organism-based

Row | SMILES | LC90 (Meloidogyne javanica [1]) [µg/mL] | LC50 (Meloidogyne javanica [1]) [µg/mL] | mortality at 5 µg/mL (Meloidogyne javanica [2]) [%] | mortality at 5 µg/mL (Meloidogyne javanica [3]) [%] | inhibition (Meloidogyne javanica [4]) | inhibition (Meloidogyne javanica [5]) | LD50 (Meloidogyne javanica [6]) [mL] | Activity (Meloidogyne javanica [7]) | Activity (Meloidogyne javanica [8]) | Activity (Meloidogyne javanica [9]) | inhibition (Meloidogyne javanica [10])
1 | CC(N=C=S)c1ccccc1 (centres undefined) [1-PHENYLETHYL ISOTHIOCYANATE] | 8.14 (≈ 49.9 µM) | 4.24 (≈ 26 µM) | 76.6 | 58.6 |  |  |  |  |  |  | 
2 | CCCCN=C=S [BUTYL ISOTHIOCYANATE] |  |  | 58.6 | 28.1 |  |  |  |  |  |  | 
3 | CC(C)N=C=S [ISOPROPYL ISOTHIOCYANATE] |  |  | 42.9 | 22.6 |  |  |  |  |  |  | 
4 | C=CC(=O)N=C=S [ACRYLOYL ISOTHIOCYANATE] | 4.63 (≈ 40.9 µM) | 2.53 (≈ 22.4 µM) | 92.1 | 71 | Active | Active | 0.48 | Active | Active | Active | 
5 | N#CSCc1ccccc1 [BENZYL THIOCYANATE] | 8.71 (≈ 58.4 µM) | 4.64 (≈ 31.1 µM) | 66.4 | 30.1 |  |  |  |  |  |  | 
6 | CNC(=S)[S-].[Na+] [METAM SODIUM] | 3.65 | 2.12 | 93.4 | 72.2 |  |  |  |  |  |  | Active
7 | S=C=Nc1ccccc1 [PHENYLISOTHIOCYANATE] |  |  | 58.2 | 25.6 |  |  |  |  |  |  | 
8 | CC(C)/C=C/N=C=S [ISOAMYLENE ISOTHIOCYANATE] |  |  | 56.9 | 27.4 |  |  |  |  |  |  | 
9 | C=CCN=C=S [ALLYL ISOTHIOCYANATE] | 4.94 (≈ 49.8 µM) | 2.76 (≈ 27.8 µM) | 90.5 | 70.1 | Active | Active | 0.49 | Active | Active | Active | 
10 | S=C=NCc1ccccc1 [BENZYL ISOTHIOCYANATE] | 8.55 (≈ 57.3 µM) | 4.48 (≈ 30 µM) | 70.2 | 32.2 |  |  |  |  |  |  | 
11 | S=C=NCCc1ccccc1 [PHENETHYLISOTHIOCYANATE] | 6.96 (≈ 42.6 µM) | 4.15 (≈ 25.4 µM) | 79.6 | 60.8 |  |  |  |  |  |  | 
12 | CC/C=C/N=C=S [BUTENYL ISOTHIOCYANATE] |  |  | 49.9 | 20.6 |  |  |  |  |  |  | 
13 | CC(C)CC(=O)N=C=S [ISOVALERYL ISOTHIOCYANATE] |  |  | 58.5 | 26.4 |  |  |  |  |  |  | 
14 | CCCN=C=S [PROPYL ISOTHIOCYANATE] |  |  | 40.2 | 21.5 |  |  |  |  |  |  | 
15 | CCN=C=S [ETHYL ISOTHIOCYANATE] | 5.72 (≈ 65.6 µM) | 3.05 (≈ 35 µM) | 88.2 | 66.9 |  |  |  |  |  |  | 
